IC50 and inhibition data for 24 molecules are collected here from patent EP0938471B1, “THE PREPARATION AND USE OF ORTHO-SULFONAMIDO ARYL HYDROXAMIC ACIDS AS MATRIX METALLOPROTEINASE AND TACE INHIBITORS” (priority 1996, dated 1998).

Read-outs that look alike come from different tables or passages of the source.

Common to all, as to assay type: biochemical
The target in assay [1] is T1, MMP-1 (Homo sapiens, UniProt P03956).
T1 sequence (P03956 100-469): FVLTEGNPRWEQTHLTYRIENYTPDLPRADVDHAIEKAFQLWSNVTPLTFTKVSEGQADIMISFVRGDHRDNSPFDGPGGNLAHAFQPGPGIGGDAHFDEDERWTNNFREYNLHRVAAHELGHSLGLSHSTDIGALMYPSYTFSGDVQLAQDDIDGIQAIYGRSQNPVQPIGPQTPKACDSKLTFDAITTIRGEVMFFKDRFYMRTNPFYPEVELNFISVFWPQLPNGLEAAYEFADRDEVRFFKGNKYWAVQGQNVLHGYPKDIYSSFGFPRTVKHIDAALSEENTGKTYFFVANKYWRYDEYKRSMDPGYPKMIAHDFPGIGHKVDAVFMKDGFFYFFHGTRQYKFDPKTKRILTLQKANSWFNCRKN
Briefly: MMP-1 inhibition (thiopeptide or fluorescent peptide substrate assay). The note with it: for IC50: read-out: MMP-1 IC50.

Assay [2] concerns the target MMP-9 (Homo sapiens, UniProt P14780). In words: MMP-9 inhibition (thiopeptide or fluorescent peptide substrate assay). The note with it: read-out: MMP-9 IC50.
Procedure: The enzyme activity is measured by the rate of the color increase. The thiopeptide substrate is made up fresh as a 20 mM stock in 100% DMSO and the DTNB is dissolved in 100% DMSO as a 100 mM stock and stored in the dark at room temperature. Both the substrate and DTNB are diluted together to 1 mM with substrate buffer (50 mM HEPES pH 7.5, 5 mM CaCl2) before use. […] Alternatively, a fluorescent peptide substrate is used. In this assay, the peptide substrate contains a fluorescent group and a quenching group. Upon cleavage of the substrate by an MMP, the fluorescence that is generated is quantitated on the fluorescence plate reader. […] The substrate is dissolved in methanol and stored frozen in 1 mM aliquots. For the assay, substrate and enzymes are diluted in HCBC buffer to the desired concentrations. Compounds are added to the 96 well plate containing enzyme and the reaction is started by the addition of substrate. […] For either the thiopeptide or fluorescent peptide assays, the slope of the line is calculated and represents the reaction rate. […] The mean (x±sem) of the control rate is calculated and compared for statistical significance (p<0.05) with drug-treated rates using Dunnett's multiple comparison test.
Assay [3] deals with MMP-13 (Homo sapiens, UniProt P45452). In words: MMP-13 inhibition (thiopeptide or fluorescent peptide substrate assay).
Assay [4] deals with TACE (Homo sapiens, UniProt P78536). In words: TACE inhibition (fluorescent peptidyl substrate).
Chain of TACE (P78536 215-824): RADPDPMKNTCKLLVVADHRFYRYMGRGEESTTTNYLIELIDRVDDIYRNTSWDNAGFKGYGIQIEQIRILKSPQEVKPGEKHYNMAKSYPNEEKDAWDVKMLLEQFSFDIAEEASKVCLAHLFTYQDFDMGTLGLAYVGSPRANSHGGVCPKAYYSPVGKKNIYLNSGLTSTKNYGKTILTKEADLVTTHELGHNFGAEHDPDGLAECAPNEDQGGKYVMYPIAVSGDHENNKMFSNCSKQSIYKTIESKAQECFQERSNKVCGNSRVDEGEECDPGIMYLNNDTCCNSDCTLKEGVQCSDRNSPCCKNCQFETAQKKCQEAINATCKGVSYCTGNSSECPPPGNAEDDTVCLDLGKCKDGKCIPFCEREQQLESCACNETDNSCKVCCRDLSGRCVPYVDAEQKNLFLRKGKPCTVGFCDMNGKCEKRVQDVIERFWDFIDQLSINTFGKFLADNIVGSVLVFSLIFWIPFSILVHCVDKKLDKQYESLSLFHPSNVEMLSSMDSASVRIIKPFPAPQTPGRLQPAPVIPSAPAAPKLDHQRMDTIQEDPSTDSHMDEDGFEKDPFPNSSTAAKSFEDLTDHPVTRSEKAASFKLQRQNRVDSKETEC
Procedure: Using 96-well black microtiter plates, each well receives a solution composed of 10 µL TACE (Immunex, final concentration 1µg/mL), 70µL Tris buffer, pH 7.4 containing 10% glycerol (final concentration 10 mM), and 10 µL of test compound solution in DMSO (final concentration 1µM, DMSO concentration <1%) and incubated for 10 minutes at room temperature.
The reaction is read (excitation 340 nm, emission 420 nm) for 10 min. and the increase in fluorescence over time is plotted as a linear line. The slope of the line is calculated and represents the reaction rate.
The linearity of the reaction rate is confirmed (r^2 >0.85). The mean (x±sem) of the control rate is calculated and compared for statistical significance (p<0.05) with drug-treated rates using Dunnett's multiple comparison test.

Chain of MMP-9 (P14780 94-707): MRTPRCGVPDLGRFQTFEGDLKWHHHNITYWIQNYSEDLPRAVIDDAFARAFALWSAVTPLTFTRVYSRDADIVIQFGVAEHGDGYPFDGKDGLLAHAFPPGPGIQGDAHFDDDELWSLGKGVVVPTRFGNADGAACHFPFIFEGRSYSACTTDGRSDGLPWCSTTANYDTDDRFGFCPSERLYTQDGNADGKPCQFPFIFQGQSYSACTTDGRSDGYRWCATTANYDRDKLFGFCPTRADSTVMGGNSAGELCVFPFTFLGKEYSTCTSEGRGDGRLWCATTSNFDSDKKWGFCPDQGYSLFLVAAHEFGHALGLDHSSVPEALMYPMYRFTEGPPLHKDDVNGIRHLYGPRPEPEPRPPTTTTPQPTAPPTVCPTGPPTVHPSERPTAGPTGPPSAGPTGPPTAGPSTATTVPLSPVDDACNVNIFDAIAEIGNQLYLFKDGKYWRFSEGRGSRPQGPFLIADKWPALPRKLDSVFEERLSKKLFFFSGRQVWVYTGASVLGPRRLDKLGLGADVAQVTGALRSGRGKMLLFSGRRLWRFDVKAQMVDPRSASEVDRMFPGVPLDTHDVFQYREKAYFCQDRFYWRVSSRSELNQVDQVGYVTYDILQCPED

With `COc1ccc(S(=O)(=O)N(Cc2ccccc2)c2cc(C)ccc2C(=O)NO)cc1` [Example 26, 2-[Benzyl-(4-methoxy-benzenesulfonyl)-amino]-N-hydroxy-4-methyl-benzamide], the IC50 (commonly the concentration that inhibits the measured activity by half) in assay [1] was 884 nM; in assay [2], 346 nM; in assay [3] (read-out: MMP-13 IC50), 982 nM; in assay [4] (read-out: TACE IC50), more than 1000 nM.
As for `COc1ccc(S(=O)(=O)N(Cc2ccccc2)c2cccc(C)c2C(=O)NO)cc1` [Example 27, 2-[Benzyl-(4-methoxy-benzenesulfonyl)-amino]-N-hydroxy-6-methyl-benzamide], the IC50 in assay [1] was 1570 nM; in assay [2] it was 440 nM; in assay [3] (read-out: MMP-13 IC50), 717 nM; in assay [4] (read-out: TACE IC50) it was more than 1000 nM.
In the case of `COc1ccc(S(=O)(=O)N(Cc2ccccc2)c2ccc(C)cc2C(=O)NO)cc1` [Example 29, 2-[Benzyl-(4-methoxy-benzenesulfonyl)-amino]-N-hydroxy-5-methyl-benzamide], the IC50 came to 553 nM in assay [1], 353 nM in assay [2], 728 nM in assay [3] (read-out: MMP-13 IC50) and 1000 nM in assay [4] (read-out: TACE IC50).
As for `COc1ccc(S(=O)(=O)N(Cc2ccccc2)c2c(OCC(F)(F)F)cccc2C(=O)NO)cc1` [Example 55, 2-[Benzyl-(4-methoxy-benzenesulfonyl)-amino]-N-hydroxy-3-(2,2,2-trifluoroethoxy)-benzamide], the IC50 in assay [1] is 670 nM; in assay [2] it was 29 nM; in assay [3] (read-out: MMP-13 IC50), 216 nM; in assay [4] (read-out: TACE IC50), more than 1000 nM.
As for `COCCOCOc1cccc(C(=O)NO)c1N(Cc1ccccc1)S(=O)(=O)c1ccc(OC)cc1` [Example 56, 2-[Benzyl-(4-methoxy-benzenesulfonyl)-amino]-N-hydroxy-3-(2-methoxy-ethoxymethoxy)-benzamide], the IC50 in assay [1] is more than 1000 nM; in assay [2], 57 nM; in assay [3] (read-out: MMP-13 IC50), 138 nM; in assay [4] (read-out: TACE IC50) it was more than 1000 nM.
With `COc1ccc(S(=O)(=O)N(Cc2ccccc2)c2c(OCc3ccc(C(=O)NO)cc3)cccc2C(=O)NO)cc1` [Example 57, 2-[Benzyl-(4-methoxy-benzenesulfonyl)-amino]-3-[4-(hydroxyaminocarbonyl)-benzyloxy]-N-hydroxy-benzamide], the IC50 in assay [1] is more than 500 nM; in assay [2], 12 nM; in assay [3] (read-out: MMP-13 IC50) it was 33 nM; in assay [4] (read-out: TACE IC50), 1000 nM.
As for `COc1ccc(S(=O)(=O)N(Cc2ccccc2)c2c(OCCCC(=O)NO)cccc2C(=O)NO)cc1` [Example 58, 2-[Benzyl-(4-methoxy-benzenesulfonyl)-amino]-N-hydroxy-3-(3-hydroxycarbamoyl-propoxy)-benzamide], the IC50 worked out at 244 nM in assay [1], 5 nM in assay [2], 36 nM in assay [3] (read-out: MMP-13 IC50) and 682 nM in assay [4] (read-out: TACE IC50).
Regarding `COc1ccc(S(=O)(=O)N(Cc2ccccc2)c2c(OCCCCC(=O)NO)cccc2C(=O)NO)cc1` [Example 59, 2-[Benzyl-(4-methoxy-benzenesulfonyl)-amino]-N-hydroxy-3-(4-hydroxycarbamoyl-butoxy)-benzamide], the IC50 in assay [1] was 242 nM; in assay [2], 8 nM; in assay [3] (read-out: MMP-13 IC50) it was 34 nM; in assay [4] (read-out: TACE IC50) it was more than 1000 nM.
The like results for `COc1ccc(S(=O)(=O)N(Cc2ccccc2)c2c(OC(C)C)cccc2C(=O)NO)cc1` [Example 60, 2-[Benzyl-(4-methoxy-benzenesulfonyl)-amino]-N-hydroxy-3-isopropoxy-benzamide] were, in that order, 152 nM, 7 nM, 15 nM and 232 nM.
On to `COc1ccc(S(=O)(=O)N(Cc2ccccc2)c2c(C)cc(C)cc2C(=O)NO)cc1` [Example 68, 2-[Benzyl-(4-methoxy-benzenesulfonyl)-amino]-N-hydroxy-3,5-dimethyl-benzamide], for which the IC50 in assay [1] was 82 nM; in assay [2], 21 nM; in assay [3] (read-out: MMP-13 IC50), 15 nM; in assay [4] (read-out: TACE IC50), 239 nM.
As for `Cc1cc(C)c(N(Cc2ccccc2)S(=O)(=O)c2ccc(F)cc2)c(C(=O)NO)c1` [Example 69, 2-[Benzyl-(4-fluoro-benzenesulfonyl)-amino]-N-hydroxy-3,5-dimethyl-benzamide], the IC50 in assay [1] is 153 nM; in assay [2], 874 nM; in assay [3] (read-out: MMP-13 IC50), 1370 nM; in assay [4] (read-out: TACE IC50), more than 1000 nM.
For `CCCCOc1ccc(S(=O)(=O)N(Cc2ccccc2)c2c(C)cc(C)cc2C(=O)NO)cc1` [Example 72, 2-[Benzyl-(4-butoxy-benzenesulfonyl)-amino]-N-hydroxy-3,5-dimethyl-benzamide], the half-inhibitory concentration (IC50) in assay [1] was more than 1000 nM; in assay [2], 144 nM; in assay [3] (read-out: MMP-13 IC50), 137 nM; in assay [4] (read-out: TACE IC50), 377 nM.
In the case of `Cc1cc(C)c(N(Cc2ccccc2)S(=O)(=O)c2ccc(OCc3ccccc3)cc2)c(C(=O)NO)c1` [Example 74, 2-[Benzyl-(4-benzyloxy-benzenesulfonyl)-amino]-N-hydroxy-3,5-dimethyl-benzamide], the IC50 in assay [1] was more than 1000 nM; in assay [2], 554 nM; in assay [3] (read-out: MMP-13 IC50) it was 959 nM; in assay [4], 429 nM.
`C#Cc1cc(C)c(N(Cc2ccccc2)S(=O)(=O)c2ccc(OC)cc2)c(C(=O)NO)c1` [Example 80, 2-[Benzyl-(4-methoxy-benzenesulfonyl)-amino]-5-ethynyl-N-hydroxy-3-methyl-benzamide]: the IC50 came out at 109 nM in assay [1], 21 nM in assay [2], 18 nM in assay [3] (read-out: MMP-13 IC50) and 134 nM in assay [4] (read-out: TACE IC50).
In the case of `COc1ccc(S(=O)(=O)N(Cc2cccnc2)c2c(C)cc(C)cc2C(=O)NO)cc1` [Example 88, N-Hydroxy-2-[(4-methoxy-benzenesulfonyl)-pyridin-3-ylmethyl-amino]-3,5-dimethyl-benzamide], the IC50 amounted to 132 nM in assay [1], 15 nM in assay [2], 11 nM in assay [3] (read-out: MMP-13 IC50) and 50 nM in assay [4] (read-out: TACE IC50).
As to `COc1ccc(S(=O)(=O)N(Cc2ccccc2)c2cc3ccccc3cc2C(=O)NO)cc1` [Example 94, 3-[Benzyl-(4-methoxy-benzenesulfonyl)-amino]-naphthalene-2-carboxylic acid hydroxyamide], the IC50 in assay [1] was 1000 nM; in assay [2], 276 nM; in assay [3] (read-out: MMP-13 IC50) it was 209 nM; in assay [4] (read-out: TACE IC50), more than 1000 nM.
With `COc1ccc(S(=O)(=O)N(Cc2cccc(OC)c2)c2c(C)cc(C)cc2C(=O)NO)cc1` [Example 115, N-Hydroxy-2-[(4-methoxy-benzenesulfonyl)-(3-methoxy-benzyl)-amino]-3,5-dimethyl-benzamide], the IC50 in assay [1] is more than 1000 nM; in assay [2], 11 nM; in assay [3] (read-out: MMP-13 IC50), 20 nM; in assay [4] (read-out: TACE IC50), 173 nM.
On to `COc1ccc(S(=O)(=O)N(Cc2c(F)c(F)c(OC)c(F)c2F)c2c(C)cc(C)cc2C(=O)NO)cc1` [Example 116, N-Hydroxy-2-[(4-methoxy-benzenesulfonyl)-(2,3,5,6-tetrafluoro-4-methoxy-benzyl)-amino]-3,5-dimethyl-benzamide], for which the IC50 in assay [1] came out at 201 nM; in assay [2], 13 nM; in assay [3] (read-out: MMP-13 IC50), 14 nM; in assay [4] (read-out: TACE IC50) it was 271 nM.
`COc1ccc(S(=O)(=O)N(Cc2ccccc2Br)c2c(C)cc(C)cc2C(=O)NO)cc1` [Example 118, 2-[(2-Bromo-benzyl)-(4-methoxy-benzenesulfonyl)-amino]-N-hydroxy-3,5-dimethyl-benzamide]: the IC50 is 248 nM in assay [1], 345 nM in assay [2], 229 nM in assay [3] (read-out: MMP-13 IC50) and more than 1000 nM in assay [4] (read-out: TACE IC50).
The like results for `COc1ccc(S(=O)(=O)N(Cc2cccc(Br)c2)c2c(C)cc(C)cc2C(=O)NO)cc1` [Example 119, 2-[(3-Bromo-benzyl)-(4-methoxy-benzenesulfonyl)-amino]-N-hydroxy-3,5-dimethyl-benzamide] were, in that order, 223 nM, 27 nM, 14 nM and 252 nM.
`COc1ccc(S(=O)(=O)N(Cc2ccc(Br)cc2)c2c(C)cc(C)cc2C(=O)NO)cc1` [Example 120, 2-[(4-Bromo-benzyl)-(4-methoxy-benzenesulfonyl)-amino]-N-hydroxy-3,5-dimethyl-benzamide]: the IC50 in assay [1] stood at 238 nM; in assay [2], 18 nM; in assay [3] (read-out: MMP-13 IC50), 39 nM; in assay [4] (read-out: TACE IC50), 310 nM.
For `COc1ccc(S(=O)(=O)N(C)c2c(C)cc(C)cc2C(=O)NO)cc1` [Example 130, N-Hydroxy-2-[(4-methoxy-benzenesulfonyl)-methyl-amino]-3,5-dimethyl-benzamide], in that order: 213 nM, 4 nM, 13 nM and 76 nM.
With `CCN(c1c(C)cc(C)cc1C(=O)NO)S(=O)(=O)c1ccc(OC)cc1` [Example 131, 2-[Ethyl-(4-methoxy-benzenesulfonyl)-amino]-N-hydroxy-3,5-dimethyl-benzamide], the IC50 came out at 212 nM in assay [1], 54 nM in assay [2], 48 nM in assay [3] (read-out: MMP-13 IC50) and 80 nM in assay [4] (read-out: TACE IC50).
For the molecule `COc1ccc(S(=O)(=O)N(Cc2ccccc2)c2c(C(=O)NO)cccc2N(C)C)cc1` [Example 390, 2-[Benzyl-(4-methoxy-benzenesulfonyl)-amino]-3-dimethylamino-N-hydroxy-benzamide], the inhibition (usually how much of the control response was suppressed) at 1 µM in assay [1] (read-out: MMP-1 % inhibition, footnote: 1µM) amounted to 19%; in assay [4] (at 1µM concentration), 39%. The IC50 in assay [3] worked out at 531 nM.
